# Results taken from article PMC10825133, “Repurposing proteasome inhibitors for improved treatment of triple-negative breast cancer” (Cell Death Discovery, 2024).
# Read-outs that look alike come from different tables or passages of the source.
# Assays:
# CAL-148 cells = assay: Resazurin-based cell viability assay, monotherapy drug screen; set-up: species or system human; AUC: unit not given beside the values; settings: CAL-148; for AUC: area under the dose response curve, 24 h; for GRmax: drug efficacy at highest tested dose (<0 cytotoxic, 0 cytostatic, >0 partial growth inhibition)
# BT-549 cells = assay: as above; set-up: species or system human; AUC: scale not given here; settings: BT-549; for AUC: area under the dose response curve, 24 h; for GRmax: drug efficacy at highest tested dose (<0 cytotoxic, 0 cytostatic, >0 partial growth inhibition)
# Summary of the method: (§1)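 Cells were seeded at the highest density (tested 1000-16000 cells/well) giving linear growth between days 1 and 3, keeping them in exponential phase over the ~52 h experiment. Viability was read after 4 h at 37 °C with 0.2 mg/ml resazurin added at 10% of medium volume; ex 560/em 615 nm.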
# HCC1806 cells = assay: as above; set-up: species or system human; AUC: scale not given here; settings: HCC1806; for AUC: area under the dose response curve, 24 h; for GRmax: drug efficacy at highest tested dose (<0 cytotoxic, 0 cytostatic, >0 partial growth inhibition)
# Summary of the method: as §1
# HCC38 cells = assay: as above; set-up: species or system human; AUC: scale not given here; settings: HCC38; for AUC: area under the dose response curve, 24 h; for GRmax: drug efficacy at highest tested dose (<0 cytotoxic, 0 cytostatic, >0 partial growth inhibition)
# Summary of the method: as §1
# HCC70 cells = assay: as above; set-up: species or system human; AUC: scale not given here; settings: HCC70; for AUC: area under the dose response curve, 24 h; for GRmax: drug efficacy at highest tested dose (<0 cytotoxic, 0 cytostatic, >0 partial growth inhibition)
# Summary of the method: as §1
# MCF-7 cells = assay: as above; set-up: species or system human; AUC: scale not given here; settings: MCF-7; for AUC: area under the dose response curve, 24 h; for GRmax: drug efficacy at highest tested dose (<0 cytotoxic, 0 cytostatic, >0 partial growth inhibition)
# Summary of the method: as §1
# MDA-MB-436 cells = assay: as above; set-up: species or system human; AUC: scale not given here; settings: MDA-MB-436; for AUC: area under the dose response curve, 24 h; for GRmax: drug efficacy at highest tested dose (<0 cytotoxic, 0 cytostatic, >0 partial growth inhibition)
# Summary of the method: as §1
# MDA-MB-468 cells = assay: as above; set-up: species or system human; AUC: scale not given here; settings: MDA-MB-468; for AUC: area under the dose response curve, 24 h; for GRmax: drug efficacy at highest tested dose (<0 cytotoxic, 0 cytostatic, >0 partial growth inhibition)
# Summary of the method: as §1
# [1] = system: eight TNBC cell lines (BT-549, CAL-148, HCC1806, HCC38, HCC70, MDA-MB-436, MDA-MB-453, MDA-MB-468); assay: Monotherapy drug screen, mean across the TNBC cell lines; settings: for area under the dose response curve (AUC), mean ± SD / cytotoxic effect at the highest dose: TNBC cell lines; for IC50: read-out: GR50 (mean ± SD); for cytotoxic effect at the highest dose: by GRmax
# Summary of the method: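 Cells seeded at 4.0 × 10^3–7.5 × 10^3/well, grown 24 h, then drug-treated 24 h with matched solvent-vehicle controls per concentration; resazurin absorbance read-out, viability normalised to vehicle after background subtraction, t = 0 untreated cells for GR. AUC, IC50, GR50, GRmax via GRmetrics; combinations predicted by IDACombo, synergy scored with SynergyFinder.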
# [2] = 24 h drug treatment, read-out: IC50
# [3] = growth rate inhibition concentration at GR(c) = 0.5, 24 h, read-out: GR50 (the source's name)
# [4] = Homo sapiens, growth rate inhibition concentration at GR(c) = 0.5, 24 h, read-out: GR50 (the source's name)
# [5] = Homo sapiens, 24 h drug treatment, read-out: IC50
# [6] = Homo sapiens, MCF7, growth rate inhibition concentration at GR(c) = 0.5, 24 h, read-out: GR50 (the source's name)
# [7] = Homo sapiens, MCF7, 24 h drug treatment, read-out: IC50
SMILES,AUC (CAL-148 cells),GRmax (CAL-148 cells),AUC (BT-549 cells),GRmax (BT-549 cells),AUC (HCC1806 cells),GRmax (HCC1806 cells),AUC (HCC38 cells),GRmax (HCC38 cells),AUC (HCC70 cells),GRmax (HCC70 cells),AUC (MCF-7 cells),GRmax (MCF-7 cells),AUC (MDA-MB-436 cells),GRmax (MDA-MB-436 cells),AUC (MDA-MB-468 cells),"area under the dose response curve (AUC), mean ± SD ([1]; 24 h)",IC50 (CAL-148 cells; [4]) [nM],IC50 (HCC38 cells; [4]) [nM],IC50 (MCF-7 cells; [6]) [nM],IC50 (MDA-MB-436 cells; [4]) [nM],further results
N.N.[Cl][Pt][Cl] [Cisplatin],0.48,−0.97,0.57,−0.16,0.48,−0.72,0.45,−0.67,0.37,−0.89,0.66,−0.96,0.62,0.17,0.37,0.51 ± 0.10,,,,,IC50 (CAL-148 cells; [2]): 48 nM; IC50 (CAL-148 cells; [3]): 32 nM; IC50 (BT-549 cells; [2]): 53 nM; IC50 (BT-549 cells; [3]): 35 nM; IC50 (HCC1806 cells; [2]): 48 nM; IC50 (HCC1806 cells; [3]): 42 nM; IC50 (HCC38 cells; [2]): 30 nM; IC50 (HCC38 cells; [3]): 19 nM; IC50 (HCC70 cells; [2]): 22 nM; IC50 (HCC70 cells; [3]): 15 nM; IC50 (MCF-7 cells; [2]): 160 nM; IC50 (MCF-7 cells; [3]): 15 nM; IC50 (MDA-MB-436 cells; [2]): 64 nM; IC50 (MDA-MB-436 cells; [3]): 43 nM; IC50 (MDA-MB-468 cells; [2]): 15 nM; GRmax (MDA-MB-468 cells): −0.46; IC50 (MDA-MB-468 cells; [3]): 7.5 nM
CC(C)C[C@H](NC(=O)[C@@H](NC(=O)c1cccc(-c2ccccc2)n1)[C@@H](C)O)B(O)O [Delanzomib],0.77,0.39,0.73,0.48,0.74,0.50,0.42,−0.97,0.75,−0.36,0.77,−0.28,0.79,−0.84,0.58,0.69 ± 0.10,23,8.2,37,29,"IC50 (HCC38 cells; [5]): 12 nM; IC50 (HCC70 cells; [5]): 3300 nM; IC50 (HCC70 cells; [4]): 370 nM; IC50 (MDA-MB-468 cells; [5]): 77 nM; IC50 (MDA-MB-468 cells; [4]): 11 nM; IC50 ([1]; Homo sapiens, 24 h): 79 ± 130 nM"
CC(=O)O[C@@]12CO[C@@H]1C[C@H](O)[C@@]1(C)C(=O)[C@H](O)C3=C(C)[C@@H](OC(=O)[C@H](O)[C@@H](NC(=O)OC(C)(C)C)c4ccccc4)C[C@@](O)([C@@H](OC(=O)c4ccccc4)[C@H]21)C3(C)C [Docetaxel],0.89,0.74,0.79,0.61,0.64,0.56,0.78,0.17,0.83,0.72,0.75,−0.44,0.69,−0.81,0.77,0.79 ± 0.10,,13,6.5,5,"IC50 ([1]; Homo sapiens, 24 h): 8.8 ± 3.9 nM"
COc1cccc2c1C(=O)c1c(O)c3c(c(O)c1C2=O)C[C@@](O)(C(=O)CO)C[C@@H]3O[C@H]1C[C@H](N)[C@H](O)[C@H](C)O1 [Doxorubicin],0.72,0.15,0.89,0.36,0.87,0.54,0.83,0.01,0.88,−0.35,0.93,0.44,0.85,0.26,0.84,,120,770,5700,3400,IC50 (CAL-148 cells; [5]): 220 nM; IC50 (BT-549 cells; [5]): 7600 nM; IC50 (BT-549 cells; [4]): 5600 nM; IC50 (HCC1806 cells; [4]): 6000 nM; IC50 (HCC38 cells; [5]): 2900 nM; IC50 (HCC70 cells; [5]): 3300 nM; IC50 (HCC70 cells; [4]): 1800 nM; IC50 (MCF-7 cells; [7]): 1800 nM; IC50 (MDA-MB-436 cells; [5]): 9700 nM; IC50 (MDA-MB-468 cells; [5]): 3000 nM; IC50 (MDA-MB-468 cells; [4]): 1500 nM; cytotoxic effect at the highest dose [1]: lowest cytotoxic effects
COc1cccc2c1C(=O)c1c(O)c3c(c(O)c1C2=O)C[C@@](O)(C(=O)CO)C[C@@H]3O[C@H]1C[C@H](N)[C@@H](O)[C@H](C)O1 [Epirubicin],0.73,0.14,0.88,0.34,0.86,0.45,0.81,−0.03,0.83,−0.49,0.89,0.42,0.84,0.26,0.80,,110,690,1100,3600,IC50 (CAL-148 cells; [5]): 200 nM; IC50 (BT-549 cells; [5]): 4600 nM; IC50 (BT-549 cells; [4]): 4300 nM; IC50 (HCC1806 cells; [4]): 6200 nM; IC50 (HCC38 cells; [5]): 2300 nM; IC50 (HCC70 cells; [5]): 1600 nM; IC50 (HCC70 cells; [4]): 1000 nM; IC50 (MCF-7 cells; [7]): 1500 nM; IC50 (MDA-MB-468 cells; [5]): 2200 nM; IC50 (MDA-MB-468 cells; [4]): 960 nM; cytotoxic effect at the highest dose [1]: lowest cytotoxic effects
CC[C@H](C)[C@H](NC(=O)[C@H]([C@@H](C)CC)N(C)C(C)=O)C(=O)N[C@H](C(=O)N[C@@H](CC(C)C)C(=O)[C@@]1(C)CO1)[C@@H](C)O [Epoxomicin],0.78,0.11,0.73,0.38,0.73,0.34,0.47,−0.74,0.72,−0.52,0.74,0.42,0.77,0.37,0.65,0.69 ± 0.10,,,,,"IC50 (CAL-148 cells; [3]): 770 nM; IC50 (BT-549 cells; [3]): 130 nM; IC50 (HCC1806 cells; [2]): 470 nM; IC50 (HCC1806 cells; [3]): 290 nM; IC50 (HCC38 cells; [2]): 54 nM; IC50 (HCC38 cells; [3]): 44 nM; IC50 (HCC70 cells; [2]): 980 nM; IC50 (HCC70 cells; [3]): 140 nM; IC50 (MCF-7 cells; [2]): 1200 nM; IC50 (MCF-7 cells; [3]): 75 nM; IC50 (MDA-MB-436 cells; [3]): 320 nM; IC50 (MDA-MB-468 cells; [2]): 110 nM; GRmax (MDA-MB-468 cells): 0.01; IC50 (MDA-MB-468 cells; [3]): 51 nM; cytotoxic effect at the highest dose [1]: lowest cytotoxic effects; IC50 ([1]; across the TNBC cell lines, 24 h drug treatment): 220 ± 230 nM"
